For one assay, the target named is T1, adenosine A1 receptor (Rattus norvegicus, UniProt P25099).
T1 construct: brain minus cerebellum and brainstem from male Long Evans rats (150-200 g) was homogenized; from tissue; host or cells: rat whole brain minus cerebellum and brainstem, membrane homogenate
T1 sequence (P25099 1-326): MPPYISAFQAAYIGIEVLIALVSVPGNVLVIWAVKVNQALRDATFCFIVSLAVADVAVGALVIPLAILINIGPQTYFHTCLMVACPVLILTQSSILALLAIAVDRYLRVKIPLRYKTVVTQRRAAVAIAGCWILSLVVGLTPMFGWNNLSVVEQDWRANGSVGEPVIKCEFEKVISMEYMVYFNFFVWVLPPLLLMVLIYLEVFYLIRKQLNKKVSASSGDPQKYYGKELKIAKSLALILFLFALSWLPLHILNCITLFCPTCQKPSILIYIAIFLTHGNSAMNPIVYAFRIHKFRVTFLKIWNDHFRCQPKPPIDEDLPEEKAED
The assay can be described thus: Adenosine Receptor Binding - A1 Receptor Affinity (RBA1), [3H]-CHA displacement. The following applies: 1.0 nM [3H]-CHA, rat whole brain membranes, one hour at 25°C; read-out: Receptor Binding RBA—1. How it is done:
While brain minus cerebellum and brainstem from male Long Evans rats (150-200 g) was homogenized in 30 volumes of ice-cold 0.05 M Tris-CHI buffer pH 7.7 using a Brinkman Polytron PT-10, (setting number 6 for 20 seconds) and centrifuged for ten minutes at 20,000 x g (Sorvall RC-2), 4°C. The supernatant was discarded, and the pellet was resuspended and centrifuged as before. The pellet was resuspended in 20 ml Tris-HCI buffer containing two International Units/ml of adenosine deaminase (Sigma type III from calf intestinal mucosa), incubated at 37°C for 30 minutes, then subsequently at 0°C for ten minutes. The homogenate was again centrifuged, and the final pellet was resuspended in ice-cold 0.05 M Tris-HCI buffer pH 7.7 to a concentration of 20 mg/ml original wet tissue weight and used immediately.
Tissue homogenate (10 mg/ml) was incubated in 0.05 M Tris-HCI buffer pH 7.7 containing 1.0 nM (^3H]-N^e-cyclohexyladenosine ([^3H]-CHA) with or without tests agents in triplicate for one hour at 25°C. Incubation volume was 2 ml. Unbound [^3H]-CHA was separated by rapid filtration under reduced pressure through Whatman glass fiber (GF/B) filters. The filters were rinsed three times with 5 ml of ice cold 0.05 M Tris-HCI buffer pH 7.7. The radio-labeled ligand retained on the filter was measured by liquid scintillation spectrophotometry after shaking the filters for one hour or longer on a mechanical shaker in 10 ml of Beckman Ready-Solv HP scintillation cocktail.
Nonspecific binding was defined as the binding which occurred in the presence of 1 mM theophylline. […] The Scatchard plot was calculated by linear regression of the line obtained by plotting the amount of radioligand bound (pmoles/gram of tissue) [formula] Since the amount of radioligand bound was a small fraction of the total amount added, free radioligand was defined as the concentration (nM) of radioligand added to the incubation mixture. The Hill coefficient was calculated by linear regression of the line obtained by plotting the log of the bound radioligand vs the log of the [formula] The maximal number of binding sites (Bmax) was calculated from the Scatchard plot.

A further assay addresses T2, adenosine A2 receptor (Rattus norvegicus, UniProt P30543).
T2 construct: Brains were thawed and then kept on ice while the striata were dissected out; tissue Pel-Freez (Rogers, Arkansas); host or cells: rat striatum, membranes
Nature of the assay: Adenosine Receptor Binding - A2 Receptor Affinity (RBA2), [3H]NECA displacement. The following applies: 4 nM [3H]NECA with 50 nM N6-cyclopentyladenosine, rat striatal membranes, 60 minutes at 25°C; read-out: Receptor Binding RBA—2. As to the method: Brains from 200-500 g mixed sex Sprague-Dawley rats were purchased from Pel-Freez (Rogers, Arkansas). Fresh brains from male Long-Evans hooded rats (Blue Spruce Farms, Altamont, NY) gave essentially indentical results. Brains were thawed and then kept on ice while the striata were dissected out. Striata were disrupted in 10 vol of ice-cold 50 mM Tris.HCI (pH 7.7 at 25°C, pH 8.26 at 5°C) (Tris) for 30 seconds in a Polytron PT―10 (Brinkmann) at setting 5. The suspension was centrifuged at 50,000 xg for ten minutes, the supernatant discarded, the pellet resuspended in 10 vol ice-cold Tris as above, recentrifuged, resuspended at 1 g/5 ml, and stored in plastic vials at -70°C (stable for at least six months). When needed, tissue was thawed at room temperature, disrupted in a Polytron, and kept on ice until used.
All incubations were for 60 minutes at 25°C in 12x75 mm glass tubes containing 1 ml Tris with 5 mg original tissue weight of rat weight of rat striatal membranes, 4 nM [^3H]-N-ethyl adenosine-5'-carboxamide ([^3H]NECA), 50 nM N^6-cyclopentyladenosine (to eliminate A1 receptor binding), 10 mM MgCl2, 0.1 units/ml, of adenosine deaminase and 1% dimethylsulfoxide. N^6-Cyclopentyladenosine was dissolved at 10 mM in 0.02 N HCI and diluted in Tris. Stock solutions and dilutions of N^6-cyclopentyladenosine could be stored at -20°C for several months. Test compounds were dissolved at 10 mM in dimethylsulfoxide or the same day as the experiment, and diluted in dimethylsulfoxide to 100x the final incubation concentration. Control incubations received an equal volume (10 µl) of dimethylsulfoxide; the resulting concentration of dimethylsulfoxide had no effect on binding. [^3H]NECA was diluted to 40 nM in Tris. The membrane suspension (5 mg/0.79 ml) contained sufficient MgCl2 and adenosine deaminase to give 10 mM and 0.1 units/ml, respectively, final concentration in the incubation. […] After all additions, the rack of tubes was vortexed, and the tubes were then incubated for 60 min at 25°C in a shaking water bath. The rack of tubes was vortexed an additonal time halfway through the incubation.
Incubations were terminated by filtration through 2.4 cm GF/B filters under reduced pressure. Each tube was filtered as follows: the contents of the tube were poured onto the filter, 4 ml of ice-cold Tris were added to the tube and the contents poured onto the filter, and the filter was washed twice with 4 ml of ice-cold Tris. The filtration was complete in about twelve seconds. Filters were put in scintillation vials, 8 ml of Formula 947 scintillation fluid added, and the vials left overnight, shaken, and counted in a liquid scintillation counter at 40% efficiency.
Nonspecific binding was defined as binding in the presence of […] N^6-cyclopentyladenosine, and specific binding was defined as total binding minus nonspecific binding. The IC50 was calculated by weighted nonlinear least squares curve-fitting to the mass-action equation. [formula] • where Y is cpm bound T is cpm total binding without drug S is cpm specific binding without drug D is the concentration of drug • and K is the IC50 of the drug Weighting factors were calculated under the assumption that the standard deviation was proportional to the predicted value of Y. Nonspecific binding was treated as a very large (infinite) concentration of drug in the computer analysis.

Assay [1] deals with Long-Evans rats or squirrel-monkeys. Nature of the assay: Conditioned avoidance of electric footshock by lever pushing (SIDR). It counts as in vivo. As to the method:
A representative compound of the invention (identified in the Example 5) was also tested for antipsychotic activity according to the following protocol (SIDR). The noted compound has the indicated EDso values (mg/kg) and is considered active as an antipsychotic agent in the test procedure.
Mature male Long-Evans rats or squirrel-monkeys are conditioned to push a lever in order to avoid a painful electric footshock. If the animal fails to push the lever, he receives a shock every ten seconds until the lever is pushed. Shocks can be terminated by pushing the lever. Thereafter, as long as the lever is pushed at least once every 20 seconds, there will be no shock.
Each animal acts as its own control; one weekly session is used to establish baseline behavior and another session later in the week is used as a drug session. Once patterns of avoidance are established, the effects of standard and unknown compounds are studied.

A further assay concerns male Swiss-Webster mice. The assay can be described thus: Antiwrithing (AW) test, acetic acid induced writhing. It counts as in vivo. The conditions noted are these: Mus musculus, ip; administered intraperitoneally to mice; read-out: ED50 (dose necessary to suppress writhing by 50% relative to vehicle controls). (Writhing tests count abdominal constrictions after an irritant is injected.)

T2 sequence (P30543 whole entry): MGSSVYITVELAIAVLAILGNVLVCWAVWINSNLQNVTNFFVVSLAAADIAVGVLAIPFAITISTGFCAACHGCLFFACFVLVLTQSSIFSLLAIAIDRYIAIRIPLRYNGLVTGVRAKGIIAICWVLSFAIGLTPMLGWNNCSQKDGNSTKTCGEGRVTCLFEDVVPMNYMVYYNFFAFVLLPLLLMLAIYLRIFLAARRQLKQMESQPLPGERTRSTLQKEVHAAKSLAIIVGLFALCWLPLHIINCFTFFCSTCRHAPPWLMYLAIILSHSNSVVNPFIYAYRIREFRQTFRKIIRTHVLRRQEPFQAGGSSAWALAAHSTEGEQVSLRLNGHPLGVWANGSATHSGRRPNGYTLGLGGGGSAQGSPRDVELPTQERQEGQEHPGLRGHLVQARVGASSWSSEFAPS

By ED50 is commonly meant the dose that gives a 50% effect, or the effect in half of the subjects. `C[C@H]1O[C@@H](n2cnc3c(NC4CCCC4)ncnc32)[C@H](O)[C@@H]1O` [Example 5, N^6-[Cyclopentyl]-5'-deoxyadenosine]: the figures for the IC50 on adenosine A1 receptor and on adenosine A2 receptor were 0.016 µM and 17.2 µM, respectively. The ED50 in assay [1] (Rattus norvegicus, species of the result not stated (rats or squirrel-monkeys), read-out: ED50 for blockade of avoidance) was 2.8 mg/kg; with male Swiss-Webster mice, 0.9 mg/kg. Also, the “response for blockade of escape” value in assay [1] (at 4 mg/kg) was determined as 10%.

The record behind these values is patent EP0181129B1, “N6-substituted deoxyribose analogs of adenosines” (WARNER-LAMBERT COMPANY, priority 1984, dated 1986).
